According to patent publication EP0447704A1, “N-Acylated azacyclic compounds, processes for their preparations and their use as medications” (Smithkline Beecham Farmaceutici S.p.A., priority 1990, dated 1991):
Where a name gives a salt, the structure may show the parent alone.

How the values were obtained:
mice [1] = assay: p-phenylquinone-induced abdominal writhing test in mice; type: in vivo, Male Charles River mice (Swiss Strain); conditions: subcutaneous, 20 min pretreatment, graded protection, limits in brackets; for ED50: Mus musculus, sc, 20 min, read-out: ANALGESIA M. WRITHING (GRADED) ED50
Experimental: A) p-phenylquinone-induced abdominal writhing test in mice
The methodology employed is based on that described by Sigmund et al, Proc. Soc. Exptl. Biol. 95, 729/1957, modified by Milne and Twomey, Agents and Actions, 10, 31/1980.
Male Charles River mice (Swiss Strain), 25-36g body weight, were used. Animals were allowed food and water ad libitum and were randomized into groups of 10 prior to experimentation. Test compounds were dissolved in either distilled water or distilled water plus 0.1 M AMS, and administered by the subcutaneous route in a final volume of 10 ml/Kg. Control animals received 10 ml/Kg of the appropriate vehicle alone. Following a pretreatment period of 20 min., mice were injected intraperitoneally with p-phenylquinone, 2 mg/Kg at 37 °C in a final volume of […]. […] During this period the number of abdominal writhing responses per animal were recorded where writhing consists of an intermittent contraction of the abdomen associated with hind leg extension.
The degree of antinociceptive protection afforded by the test compound was determined as the mean number of writhing responses observed in the treated group (T) expressed as a percentage of the mean number of writhing responses in the control group (C) according to the following formula: [1-(T/C]x100% = % graded protection

mice [2] = assay: Tail-flick test in mice; type: in vivo, Male Charles River mice (Swiss Strain); conditions: for ANALGESIA M. TAIL-FLICK (QUANTAL) ED50 / ED50: subcutaneous, 30 min pretreatment, quantal protection, limits in brackets; for ANALGESIA M. TAIL-FLICK (QUANTAL) ED50: 30 min; for ED50: Mus musculus, 0.5 h, read-out: ANALGESIA M. TAIL-FLICK (QUANTAL) ED50; for M. TAIL-FLICK (QUANTAL) % protection: at 10 mg
Experimental: B) Tail-flick test in mice
The methodology employed is based on that described by D'Amour and Smith, J. Pharmacol. Exp. Ther. 72, 74/1941.
Male Charles River mice (Swiss Strain), 22-34g body weight were used. Animals were allowed food and water ad libitum and were randomized into groups of 10 prior to experimentation.
Test compounds were dissolved in either distilled water or distilled water plus 0.1 M AMS and administered by the subcutaneous route in a final volume of 10 ml/Kg. Control animals received 10 ml/kg of the appropriate vehicle alone. Following a pretreatment period of 30 min., the mice were again placed under the heat source and the reaction tine re-determined.
Percentage quantal protection was determined as the number of mice in which the reaction time was doubled compared to pretreatment values, expressed as a percentage of the total number of mice in the group.

CC1CCCN(C(=O)Cc2ccc(Cl)c(Cl)c2)C1CN1CCCC1 (single isomer, unassigned) [Example 2, 1-(3,4-dichlorophenyl)acetyl-2-(pyrrolidin-1-yl)methyl-3-methyl piperidine hydrochloride diasteroisomer B]
ANALGESIA M. WRITHING (GRADED) ED50 (mice [1]): 0.091 (0.075-0.112) mg/Kg sc
ANALGESIA M. TAIL-FLICK (QUANTAL) ED50 (mice [2]): 0.147 (0.091-0.237) mg/Kg sc

CC1(C)CCCN(C(=O)Cc2ccc(C(F)(F)F)cc2)C1CN1CCCC1 (racemic) [Example 10, 1-(4-trifluoromethylphenyl)acetyl-2-(pyrrolidin-1-yl)methyl-3,3-dimethyl piperidine hydrochloride]
ED50 (mice [1]): 0.023 mg/kg
ED50 (mice [2]; sc): 0.116 mg/kg

CC1CCCC(CN2CCCC2)N1C(=O)Cc1ccc(Cl)c(Cl)c1 (single isomer, unassigned; diastereoisomer a) [Example 6, 1-(3,4-dichlorophenyl)acetyl-2-(pyrrolidin-1-yl)methyl-6-methyl piperidine hydrochloride hemihydrate Diastereoisomer A]
M. TAIL-FLICK (QUANTAL) % protection at single dose (mice [2]; sc, 1.78 mg/Kg): (1.78 mg/Kg 60%)

O=C(Cc1ccc(Cl)c(Cl)c1)N1CCCC(O)C1CN1CCCC1 (single isomer, unassigned; diastereoisomer a) [Example 7, 1-(3,4-dichlorophenyl)acetyl-2-(pyrrolidin-1-yl)methyl-3-hydroxy piperidine hydrochloride diastereoisomer A trans]
ED50 (mice [1]): 0.141 mg/kg
ED50 (mice [2]; sc): 0.825 mg/kg
DURATION OF ACTION M. TAIL-FLICK (GRADED) % ACTIVITY AT MTFQ ED50 30' (mice [2]; dose = mouse tail-flick quantal ED50, 30'): 87%
DURATION OF ACTION M. TAIL-FLICK (GRADED) % ACTIVITY AT MTFQ ED50 90' (mice [2]; dose = mouse tail-flick quantal ED50, 90'): 39%

O=C(Cc1ccc(Cl)c(Cl)c1)N1CCCC(O)C1CN1CCCC1 (single isomer, unassigned; diastereoisomer b) [Example 8, 1-(3,4-dichlorophenyl)acetyl-2-(pyrrolidin-1-yl)methyl-3-hydroxy piperidine hydrochloride diastereoisomer B cis]
M. TAIL-FLICK (QUANTAL) % protection (mice [2]; sc): at 10 mg = 20% protection

CC1CCCN(C(=O)Cc2ccc(Cl)c(Cl)c2)C1CN1CCCC1 (single isomer, unassigned) [Example 1, 1-(3,4-dichlorophenyl)acetyl-2-(pyrrolidin-1-yl)methyl-3-methyl piperidine hydrochloride hemihydrate diasteroisomer A]
ANALGESIA M. TAIL-FLICK (QUANTAL) ED50 (mice [2]): 0.405 (0.230-0.607) mg/Kg sc

CC1(C)CCCN(C(=O)Cc2ccc3c(c2)CCCC3=O)C1CN1CCCC1 (stereo not drawn) [Example 13, 1-[1-oxo-3,4-dihydro-(2H)-napht-6-yl]acetyl-2-(pyrrolidin-1-yl)methyl-3,3-dimethyl piperidine]
M. TAIL-FLICK (QUANTAL) % protection (mice [2]; sc): at 10 mg = 60% protection
